Measurements taken from US10123998B2, “Kinase modulation, and indications therefor” (Plexxikon Inc., priority 2012, dated 2018).

Test system: Osteoclast precursor cells
Test: Osteoclast differentiation assay
Assay type: cell-based
Protocol: Further, an osteoclast differentiation assay is used to assess the efficacy of Fms inhibitors for treating bone disease such as osteoarthritis. On day 0, Osteoclast Medium BulletKit (Lonza catalog # PT-8001, containing Media, FBS, L-Glutamine, PenStrep, RANKL, and M-CSF) media is thawed and the FBS, L-glutamine and PenStrep from the kit is added to 100 mL of Osteoclast Precursor Basal medium to provide the Osteoclast Precursor Growth Medium (OPGM). This is warmed to 37° C. Osteoclast precursor cells (Lonza catalog #2T-110) frozen in cryovial are warmed to 37° C. and transferred to a 50 mL conical tube. The cryovial is rinsed with OPGM and added dropwise to the conical tube of cells with swirling, then the volume is adjusted to 20-30 mL with addition of OPGM. The cells are centrifuged at 200×g for 15 minutes at room temperature and all but approximately 3 mL of supernatant is removed to a new conical tube. The cells are suspended in the remaining supernatant and the volume is adjusted to 10-15 mL with OPGM added dropwise with swirling. The cells are centrifuged at 200×g for 15 minutes at room temperature and all but approximately 1 mL of supernatant is removed. The cells are resuspended in the remaining supernatant, counted, and the volume adjusted with an appropriate amount of OPGM to provide approximately 1×10^5 cells/mL. A 0.1 mL aliquot of cells is added to each well of a 96-well plate. Compound to be tested is prepared in DMSO for plating at a high concentration of 2.5 mM, with 8 point 1:3 serial dilutions. A 1 μL aliquot of each compound dilution is added to a 96 well v-bottom polypropylene plate and 0.124 mL of OPGM is added to the compound. Then 50 μL of the compound in OPGM is added to the osteoclast precursor cells in 96-well plate (providing highest test concentration of 5 μM). RANKL (2 μg) from the BulletKit is reconstituted in 1 mL of OPGM, then vortexed and centrifuged briefly. A 792 μL aliquot of RANKL is added to 6 mL of OPGM and 50 μL is added to low control wells. Then 76.6 μL M-CSF ([…]) from the BulletKit is added to the remaining 5.8 mL of OPGM/RANKL solution (4×RANKL/M-CSF/OPGM). A 50 μL aliquot of this is added to the remaining wells, and the remainder is stored at 4° C. for later use. The plate is incubated at 37° C. for 6 days, then the remaining OPGM/RANKL/M-CSF solution is warmed to 37° C. The remaining approximately 198 μL is combined with 6 mL of OPGM. The media is aspirated from the osteoclast wells and 100 μL of RANKL/OPGM is added to the low controls. The remaining RANKL/OPGM is combined with the approximately 18.5 μL of remaining M-CSF. The remaining 4×RANKL/M-CSF/OPGM from day 0 is diluted to 1× and combined with the freshly prepared solution. A 0.1 mL aliquot of this is added to each osteoclast well and incubated for 37° C. for 1 day. The Acid Phosphatase kit (Cayman Chemical catalog #10008051) is warmed to room temperature. The assay buffer is diluted 5 mL with 45 mL of water. For each plate, two substrate tablets are dissolved in 4.5 mL of the assay buffer, mixing by vortex to break up the tablet. Stop solution is diluted 12 mL with 36 mL of water. In a tissue culture hood, 20 μL of each osteoclast well supernatant is transferred to a 96 well plate. A 30 μL aliquot of the substrate solution is added to each well and incubated at 37° C. for 20 minutes, then added […] stop solution to each well. The absorbance of each well is read at 405 nm on Safire plate reader. The absorbance reading is plotted vs. concentration to provide the IC50 for each compound.

Row | SMILES | IC50
1 | COc1cnc2[nH]cc(Cc3ccc(NCc4ccc(OC)nc4)nc3F)c2c1 [Compound P-2030, [6-Fluoro-5-(5-methoxy-1H-pyrrolo[2,3-b]pyridin-3-ylmethyl)-pyridin-2-yl]-(6-methoxy-pyridin-3-ylmethyl)-amine] | < 100 nM
2 | Cc1cnc2[nH]cc(Cc3ccc(NCc4ccc(C(F)(F)F)nc4)nc3F)c2c1 [Compound P-2031, [6-Fluoro-5-(5-methyl-1H-pyrrolo[2,3-b]pyridin-3-ylmethyl)-pyridin-2-yl]-(6-trifluoromethyl-pyridin-3-ylmethyl)-amine] | < 100 nM
3 | Clc1cnc2[nH]cc(Cc3ccc(NCc4ccc(Cl)nc4)nc3)c2c1 [Compound P-2003, (6-Chloro-pyridin-3-ylmethyl)-[5-(5-chloro-1H-pyrrolo[2,3-b]pyridin-3-ylmethyl)-pyridin-2-yl]-amine] | < 100 nM
4 | COc1ncccc1CNc1ccc(Cc2c[nH]c3ncc(C)cc23)c(F)n1 [Compound P-2052, [6-Fluoro-5-(5-methyl-1H-pyrrolo[2,3-b]pyridin-3-ylmethyl)-pyridin-2-yl]-(2-methoxy-pyridin-3-ylmethyl)-amine] | < 100 nM
5 | COc1cnc2[nH]cc(Cc3ccc(NCc4ccc(Cl)cc4)nc3F)c2c1 [Compound P-2032, (4-Chloro-benzyl)-[6-fluoro-5-(5-methoxy-1H-pyrrolo[2,3-b]pyridin-3-ylmethyl)-pyridin-2-yl]-amine] | < 100 nM
6 | Cc1cnc2[nH]cc(Cc3cnc(NCc4ccc(C(F)(F)F)nc4)c(F)c3)c2c1 [Compound P-2146, [3-Fluoro-5-(5-methyl-1H-pyrrolo[2,3-b]pyridin-3-ylmethyl)-pyridin-2-yl]-(6-trifluoromethyl-pyridin-3-ylmethyl)-amine] | < 100 nM
7 | Fc1cncc(CNc2ncc(Cc3c[nH]c4ncc(Cl)cc34)cn2)c1 [Compound P-2176, [5-(5-Chloro-1H-pyrrolo[2,3-b]pyridin-3-ylmethyl)-pyrimidin-2-yl]-(5-fluoro-pyridin-3-ylmethyl)-amine] | < 100 nM
8 | COc1ncc(CNc2ccc(Cc3c[nH]c4ncc(C)cc34)c(F)n2)cc1F [Compound P-2048, (5-Fluoro-6-methoxy-pyridin-3-ylmethyl)-[6-fluoro-5-(5-methyl-1H-pyrrolo[2,3-b]pyridin-3-ylmethyl)-pyridin-2-yl]-amine] | < 100 nM
9 | COc1ncc(F)cc1CNc1ccc(Cc2c[nH]c3ncc(C#N)cc23)c(F)n1 [Compound P-2193, 3-{2-Fluoro-6-[(5-fluoro-2-methoxy-pyridin-3-ylmethyl)-amino]-pyridin-3-ylmethyl}-1H-pyrrolo[2,3-b]pyridine-5-carbonitrile] | < 100 nM
10 | COc1cnc2[nH]cc(Cc3ccc(NCc4cncc(F)c4)nc3F)c2c1 [Compound P-2028, [6-Fluoro-5-(5-methoxy-1H-pyrrolo[2,3-b]pyridin-3-ylmethyl)-pyridin-2-yl]-(5-fluoro-pyridin-3-ylmethyl)-amine] | < 100 nM
11 | FC(F)(F)c1ccncc1CNc1ccc(Cc2c[nH]c3ncc(Cl)cc23)cn1 [Compound P-2063, [5-(5-Chloro-1H-pyrrolo[2,3-b]pyridin-3-ylmethyl)-pyridin-2-yl]-(4-trifluoromethyl-pyridin-3-ylmethyl)-amine] | < 100 nM
12 | Cc1cnc2[nH]cc(Cc3ccc(NCc4cnccc4C(F)(F)F)nc3)c2c1 [Compound P-2070, [5-(5-Methyl-1H-pyrrolo[2,3-b]pyridin-3-ylmethyl)-pyridin-2-yl]-(4-trifluoromethyl-pyridin-3-ylmethyl)-amine] | < 100 nM
13 | Cn1cc(F)cc(CNc2ncc(Cc3c[nH]c4ncc(Cl)cc34)cn2)c1=O [Compound P-2157, 3-{[5-(5-Chloro-1H-pyrrolo[2,3-b]pyridin-3-ylmethyl)-pyrimidin-2-ylamino]-methyl}-5-fluoro-1-methyl-1H-pyridin-2-one] | < 100 nM
14 | COc1ncccc1CNc1ccc(Cc2c[nH]c3ncccc23)c(F)n1 [Compound P-2045, [6-Fluoro-5-(1H-pyrrolo[2,3-b]pyridin-3-ylmethyl)-pyridin-2-yl]-(2-methoxy-pyridin-3-ylmethyl)-amine] | < 100 nM
15 | COc1cnc2[nH]cc(Cc3cnc(NCc4ccc(C(F)(F)F)nc4)c(F)c3)c2c1 [Compound P-2147, [3-Fluoro-5-(5-methoxy-1H-pyrrolo[2,3-b]pyridin-3-ylmethyl)-pyridin-2-yl]-(6-trifluoromethyl-pyridin-3-ylmethyl)-amine] | < 100 nM
16 | COc1ccc(CNc2ccc(Cc3c[nH]c4ncc(C)cc34)c(F)n2)cn1 [Compound P-2029, [6-Fluoro-5-(5-methyl-1H-pyrrolo[2,3-b]pyridin-3-ylmethyl)-pyridin-2-yl]-(6-methoxy-pyridin-3-ylmethyl)-amine] | < 100 nM
17 | COc1ncc(F)cc1CNc1ccc(Cc2c[nH]c3ncc(C)cc23)c(F)n1 [Compound P-2049, (5-Fluoro-2-methoxy-pyridin-3-ylmethyl)-[6-fluoro-5-(5-methyl-1H-pyrrolo[2,3-b]pyridin-3-ylmethyl)-pyridin-2-yl]-amine] | < 100 nM
18 | Fc1cncc(CNc2ccc(Cc3c[nH]c4ncc(Cl)cc34)c(F)n2)c1 [Compound P-2001, [5-(5-Chloro-1H-pyrrolo[2,3-b]pyridin-3-ylmethyl)-6-fluoro-pyridin-2-yl]-(5-fluoro-pyridin-3-ylmethyl)-amine] | < 100 nM
19 | COc1ccnc2[nH]cc(Cc3ccc(NCc4ccc(Cl)cc4)nc3F)c12 [Compound P-2037, (4-Chloro-benzyl)-[6-fluoro-5-(4-methoxy-1H-pyrrolo[2,3-b]pyridin-3-ylmethyl)-pyridin-2-yl]-amine] | < 100 nM
20 | COc1ccc(CNc2ncc(Cc3c[nH]c4ncc(C)cc34)cc2C)cn1 [Compound P-1554, (6-Methoxy-pyridin-3-ylmethyl)-[3-methyl-5-(5-methyl-1H-pyrrolo[2,3-b]pyridin-3-ylmethyl)-pyridin-2-yl]-amine] | < 100 nM
21 | COc1ccc(CNc2ncc(Cc3c[nH]c4ncc(Cl)cc34)cn2)cn1 [Compound P-2038, [5-(5-Chloro-1H-pyrrolo[2,3-b]pyridin-3-ylmethyl)-pyrimidin-2-yl]-(6-methoxy-pyridin-3-ylmethyl)-amine] | < 100 nM
22 | Fc1ccc(CNc2ccc(Cc3c[nH]c4ncc(Cl)cc34)cn2)cn1 [Compound P-2004, [5-(5-Chloro-1H-pyrrolo[2,3-b]pyridin-3-ylmethyl)-pyridin-2-yl]-(6-fluoro-pyridin-3-ylmethyl)-amine] | < 100 nM
23 | COc1ccc(CNc2ncc(Cc3c[nH]c4ncc(C)cc34)cn2)cn1 [Compound P-2057, (6-Methoxy-pyridin-3-ylmethyl)-[5-(5-methyl-1H-pyrrolo[2,3-b]pyridin-3-ylmethyl)-pyrimidin-2-yl]-amine] | < 100 nM
24 | COc1ncc(F)cc1CNc1ncc(Cc2c[nH]c3ncc(C)cc23)cn1 [Compound P-2061, (5-Fluoro-2-methoxy-pyridin-3-ylmethyl)-[5-(5-methyl-1H-pyrrolo[2,3-b]pyridin-3-ylmethyl)-pyrimidin-2-yl]-amine] | < 100 nM
25 | COc1ncc(CNc2ccc(Cc3c[nH]c4ncc(Cl)cc34)c(F)n2)cc1F [Compound P-2165, [5-(5-Chloro-1H-pyrrolo[2,3-b]pyridin-3-ylmethyl)-6-fluoro-pyridin-2-yl]-(5-fluoro-6-methoxy-pyridin-3-ylmethyl)-amine] | < 100 nM
26 | COc1ncc(F)cc1CNc1ncc(Cc2c[nH]c3ncc(Cl)cc23)cn1 [Compound P-2064, [5-(5-Chloro-1H-pyrrolo[2,3-b]pyridin-3-ylmethyl)-pyrimidin-2-yl]-(5-fluoro-2-methoxy-pyridin-3-ylmethyl)-amine] | < 100 nM
